# In US7576215B2, “Quinolines and pharmaceutical compositions thereof” (Wyeth, priority 2003, dated 2009):
row,melting point [°C],SMILES
1,155 to 157,"O=C(Nc1cccc(C(F)(F)F)c1)c1cnc2c(C(F)(F)F)cccc2c1-c1ccccc1 [Example 371, 4-PHENYL-8-(TRIFLUOROMETHYL)-N-[3-(TRIFLUOROMETHYL)PHENYL]QUINOLINE-3-CARBOXAMIDE]"
2,148 to 151,Cc1ccccc1-c1cnc2c(C(F)(F)F)cccc2c1-c1cccc(N)c1
3,50,OCCc1ccc(COc2cccc(-c3c(-c4ccccc4)cnc4c(C(F)(F)F)cccc34)c2)cc1
4,172 to 174,"COc1cc(-c2c(-c3ccccc3)cnc3c(C(F)(F)F)cccc23)ccc1Cl [Example 393, 4-(4-CHLORO-3-METHOXYPHENYL)-3-PHENYL-8-(TRIFLUOROMETHYL)QUINOLINE]"
5,108 to 112,"O=C(O)c1ccc(COc2cccc(-c3c(-c4ccccc4)cnc4c(C(F)(F)F)cccc34)c2)cc1 [Example 512, 4-({3-[3-PHENYL-8-(TRIFLUOROMETHYL)QUINOLIN-4-YL]PHENOXY}METHYL)BENZOIC ACID]"
6,182 to 184,"Cc1cccc(NC(=O)c2cnc3c(C(F)(F)F)cccc3c2-c2ccccc2)c1 [Example 370, N-(3-METHYLPHENYL)-4-PHENYL-8-(TRIFLUOROMETHYL)QUINOLINE-3-CARBOXAMIDE]"
7,143 to 145,"Cc1ccc(N(C)C(=O)c2cnc3c(C(F)(F)F)cccc3c2-c2ccccc2)cc1 [Example 380, N-METHYL-N-(4-METHYLPHENYL)-4-PHENYL-8-(TRIFLUOROMETHYL)QUINOLINE-3-CARBOXAMIDE]"
8,85,"Oc1ccc(F)c(-c2c(-c3ccccc3)cnc3c(C(F)(F)F)cccc23)c1 [Example 412, 4-FLUORO-3-[3-PHENYL-8-(TRIFLUOROMETHYL)QUINOLIN-4-YL]PHENOL]"
9,186 to 187,"Oc1cccc(-c2c(-c3ccccc3F)cnc3c(C(F)(F)F)cccc23)c1 [Example 458, 3-[3-(2-FLUOROPHENYL)-8-(TRIFLUOROMETHYL)QUINOLIN-4-YL]PHENOL]"
10,123,"Oc1cccc(-c2c(-c3ccccc3)cnc3c(C(F)(F)F)cccc23)c1 [Example 391, 3-[3-PHENYL-8-(TRIFLUOROMETHYL)QUINOLIN-4-YL]PHENOL]"
11,192 to 195,"O=C(Nc1cccc(-c2c(-c3ccccc3)cnc3c(C(F)(F)F)cccc23)c1)Nc1ccccc1Cl [Example 76, N-(2-CHLOROPHENYL)-N′-{3-[3-PHENYL-8-(TRIFLUOROMETHYL)QUINOLIN-4-YL]PHENYL}UREA]"
12,144 to 146,"CCc1cccc(N(C)C(=O)c2cnc3c(C(F)(F)F)cccc3c2-c2ccccc2)c1 [Example 386, N-(3-ETHYLPHENYL)-N-METHYL-4-PHENYL-8-(TRIFLUOROMETHYL)QUINOLINE-3-CARBOXAMIDE]"
13,173 to 175,"O=C(Nc1ccccc1Cl)c1cnc2c(C(F)(F)F)cccc2c1-c1ccccc1 [Example 374, N-(2-CHLOROPHENYL)-4-PHENYL-8-(TRIFLUOROMETHYL)QUINOLINE-3-CARBOXAMIDE]"
14,159 to 161,"O=C(Nc1cccc(Cl)c1)c1cnc2c(C(F)(F)F)cccc2c1-c1ccccc1 [Example 373, N-(3-CHLOROPHENYL)-4-PHENYL-8-(TRIFLUOROMETHYL)QUINOLINE-3-CARBOXAMIDE]"
15,252,"Oc1cc(-c2c(-c3ccccc3)cnc3c(C(F)(F)F)cccc23)ccc1Cl [Example 392, 2-CHLORO-5-[3-PHENYL-8-(TRIFLUOROMETHYL)QUINOLIN-4-YL]PHENOL]"
16,175 to 177,"Cc1nc2c(C(F)(F)F)cccc2c(-c2ccccc2)c1C(=O)c1ccccc1 [Example 477, [2-METHYL-4-PHENYL-8-(TRIFLUOROMETHYL)QUINOLIN-3-YL](PHENYL)METHANONE]"
17,138,"COc1ccccc1N(C)C(=O)c1cnc2c(C(F)(F)F)cccc2c1-c1ccccc1 [Example 387, N-(2-METHOXYPHENYL)-N-METHYL-4-PHENYL-8-(TRIFLUOROMETHYL)QUINOLINE-3-CARBOXAMIDE]"
18,192 to 195,Cc1ccccc1-c1cnc2c(C(F)(F)F)cccc2c1-c1cccc(NC(=O)Nc2ccccc2)c1
19,91,COC(=O)/C=C/c1ccc(COc2cccc(-c3c(-c4ccccc4)cnc4c(C(F)(F)F)cccc34)c2)cc1
20,60 to 63,"COC(=O)c1ccc(COc2cccc(-c3c(C(=O)c4ccccc4)cnc4c(C(F)(F)F)cccc34)c2)c(OC)c1 [Example 507, METHYL-4-({3-[3-BENZOYL-8-(TRIFLUOROMETHYL)QUINOLIN-4-YL]PHENOXY}METHYL)-3-METHOXYBENZOATE]"
21,138 to 140,"FC(F)(F)c1cccc2c(-c3ccccc3)c(-c3ccccc3)cnc12 [Example 390, 3,4-DIPHENYL-8-(TRIFLUOROMETHYL)QUINOLINE]"
22,211 to 213,"CN(C(=O)c1cnc2c(C(F)(F)F)cccc2c1-c1ccccc1)c1cccc(Cl)c1 [Example 384, N-(3-CHLOROPHENYL)-N-METHYL-4-PHENYL-8-(TRIFLUOROMETHYL)QUINOLINE-3-CARBOXAMIDE]"
23,149 to 151,COC(=O)/C=C/c1ccc(COc2cc(-c3c(-c4ccccc4)cnc4c(C(F)(F)F)cccc34)ccc2Cl)cc1

row,melting point [°C],SMILES
1,136 to 138,"CCc1ccc(N(C)C(=O)c2cnc3c(C(F)(F)F)cccc3c2-c2ccccc2)cc1 [Example 385, N-(4-ETHYLPHENYL)-N-METHYL-4-PHENYL-8-(TRIFLUOROMETHYL)QUINOLINE-3-CARBOXAMIDE]"
2,171 to 173,"O=C(Nc1cccc(F)c1)c1cnc2c(C(F)(F)F)cccc2c1-c1ccccc1 [Example 377, N-(3-FLUOROPHENYL)-4-PHENYL-8-(TRIFLUOROMETHYL)QUINOLINE-3-CARBOXAMIDE]"
3,157 to 159,"O=C(Nc1ccc(F)cc1)c1cnc2c(C(F)(F)F)cccc2c1-c1ccccc1 [Example 376, N-(4-FLUOROPHENYL)-4-PHENYL-8-(TRIFLUOROMETHYL)QUINOLINE-3-CARBOXAMIDE]"
4,177 to 179,"CN(C(=O)c1cnc2c(C(F)(F)F)cccc2c1-c1ccccc1)c1ccc(Cl)cc1 [Example 383, N-(4-CHLOROPHENYL)-N-METHYL-4-PHENYL-8-(TRIFLUOROMETHYL)QUINOLINE-3-CARBOXAMIDE]"
5,122,"FC(F)(F)c1cccc2c(-c3ccccc3)c(Oc3ccccc3)cnc12 [Example 407, 3-PHENOXY-4-PHENYL-8-(TRIFLUOROMETHYL)QUINOLINE]"
6,202 to 205,"O=C(Nc1ccccc1)Nc1cccc(-c2c(-c3ccccc3)cnc3c(C(F)(F)F)cccc23)c1 [Example 75, N-PHENYL-N′-{3-[3-PHENYL-8-(TRIFLUOROMETHYL)QUINOLIN-4-YL]PHENYL}UREA]"
7,174 to 176,"Cc1cccc(N(C)C(=O)c2cnc3c(C(F)(F)F)cccc3c2-c2ccccc2)c1 [Example 379, N-METHYL-N-(3-METHYLPHENYL)-4-PHENYL-8-(TRIFLUOROMETHYL)QUINOLINE-3-CARBOXAMIDE]"
8,149 to 151,O=S(=O)(c1ccccc1)c1cnc2c(C(F)(F)F)cccc2c1-c1ccccc1
9,224 to 226,Cc1ccccc1-c1cnc2c(C(F)(F)F)cccc2c1-c1cccc(NC(=O)Nc2ccccc2Cl)c1
10,153 to 155,"O=C(Nc1ccc(Cl)cc1)c1cnc2c(C(F)(F)F)cccc2c1-c1ccccc1 [Example 372, N-(4-CHLOROPHENYL)-4-PHENYL-8-(TRIFLUOROMETHYL)QUINOLINE-3-CARBOXAMIDE]"
11,200 to 202,"CN(C(=O)c1cnc2c(C(F)(F)F)cccc2c1-c1ccccc1)c1cccc(F)c1 [Example 389, N-(3-FLUOROPHENYL)-N-METHYL-4-PHENYL-8-(TRIFLUOROMETHYL)QUINOLINE-3-CARBOXAMIDE]"
12,163 to 165,"Nc1cccc(-c2c(-c3ccccc3)cnc3c(C(F)(F)F)cccc23)c1 [Example 395, {3-[3-PHENYL-8-(TRIFLUOROMETHYL)QUINOLIN-4-YL]PHENYL}AMINE]"
13,144,"Cc1ccccc1N(C)C(=O)c1cnc2c(C(F)(F)F)cccc2c1-c1ccccc1 [Example 381, N-METHYL-N-(2-METHYLPHENYL)-4-PHENYL-8-(TRIFLUOROMETHYL)QUINOLINE-3-CARBOXAMIDE]"
14,188 to 190,"CN(C(=O)c1cnc2c(C(F)(F)F)cccc2c1-c1ccccc1)c1ccccc1 [Example 378, N-METHYL-N,4-DIPHENYL-8-(TRIFLUOROMETHYL)QUINOLINE-3-CARBOXAMIDE]"
15,163 to 165,"CN(C(=O)c1cnc2c(C(F)(F)F)cccc2c1-c1ccccc1)c1cccc(C(F)(F)F)c1 [Example 382, N-METHYL-4-PHENYL-8-(TRIFLUOROMETHYL)-N-[3-(TRIFLUOROMETHYL)PHENYL]QUINOLINE-3-CARBOXAMIDE]"
16,203 to 205,"Cc1ccc(NC(=O)c2cnc3c(C(F)(F)F)cccc3c2-c2ccccc2)cc1 [Example 368, N-(4-METHYLPHENYL)-4-PHENYL-8-(TRIFLUOROMETHYL)QUINOLINE-3-CARBOXAMIDE]"
17,218 to 220,"Cc1ccccc1-c1cnc2c(C(F)(F)F)cccc2c1-c1cccc(NC(=O)Nc2ccccc2F)c1 [Example 573, N-(2-FLUOROPHENYL)-N′-{3-[3-(2-METHYLPHENYL)-8-(TRIFLUOROMETHYL)QUINOLIN-4-YL]PHENYL}UREA]"
18,257,O=C(O)/C=C/c1ccc(COc2cc(-c3c(-c4ccccc4)cnc4c(C(F)(F)F)cccc34)ccc2Cl)cc1
19,122,"O=C(O)Cc1ccc(COc2cccc(-c3c(-c4ccccc4)cnc4c(C(F)(F)F)cccc34)c2)cc1 [Example 398, [4-({3-[3-PHENYL-8-(TRIFLUOROMETHYL)QUINOLIN-4-YL]PHENOXY}METHYL)PHENYL]ACETIC ACID]"
20,138 to 140,"CN(C(=O)c1cnc2c(C(F)(F)F)cccc2c1-c1ccccc1)c1ccc(F)cc1 [Example 388, N-(4-FLUOROPHENYL)-N-METHYL-4-PHENYL-8-(TRIFLUOROMETHYL)QUINOLINE-3-CARBOXAMIDE]"
21,139 to 141,"FC(F)(F)c1cccc2c(-c3ccccc3)c(Sc3ccccc3)cnc12 [Example 411, 4-PHENYL-3-(PHENYLTHIO)-8-(TRIFLUOROMETHYL)QUINOLINE]"
22,100 to 110,"COc1cc(C(=O)O)ccc1COc1cccc(-c2c(C(=O)c3ccccc3)cnc3c(C(F)(F)F)cccc23)c1 [Example 515, 4-({3-[3-BENZOYL-8-(TRIFLUOROMETHYL)QUINOLIN-4-YL]PHENOXY}METHYL)-3METHOXY-BENZOIC ACID]"
